The record followed here is patent US4758577A, “4-(5H-dibenzo[a,d]cyclohepten-5-yl)piperidine compounds for treating cardiovascular disorders” (Merck & Co., Inc., priority 1984, dated 1988).

Each structure is given as a SMILES string.

The test system of this assay is vascular smooth muscle. The assay can be described thus: inhibition of calcium induced contraction of tracheal smooth muscle or vascular tissue (segments of vascular smooth muscle in a tissue bath, depolarized, 0.1 mM calcium chloride re-added). In kind it is cell-based, male Sprague-Dawley rats. The settings on record: Rattus norvegicus; 10^-7 M; second contraction vs initial contraction. The protocol: The property may be observed in a test in which segments of vascular smooth muscle obtained from male Sprague-Dawley rats are suspended in physiological salt solution in a tissue bath instrumented for recording contractions. After the tissue has been equilibrated, washed in calcium-free physiological salt solution and depolarized, 0.1 mM calcium chloride is re-added to induce contraction. After the contraction has reached a plateau, tissues are washed and a test compound or vehicle is added to determine the effect on a second contraction achieved by the above cyclic protocol. From measuring the initial contraction as well as the second contraction in the presence of the first compound, the extent of inhibition may be calculated.
As a reminder, the inhibition is the percentage by which the read-out fell short of the control. On to `COc1cc(C=CCN2CCC(C3c4ccccc4C=Cc4ccccc43)CC2)cc(OC)c1OC` [4-(5H-Dibenzo[a,d]cyclohepten-5-yl)-1-(3-(3,4,5-trimethoxyphenyl)prop-2-en-1-yl)piperidine], for which the inhibition at 0.1 µM came out at 68%. Under `CN(C)c1ccc(CN2CCC(C3c4ccccc4C=Cc4ccccc43)CC2)cc1` [4-(5H-Dibenzo[a,d]cyclohepten-5-yl)-1-(4-dimethylaminobenzyl)piperidine] stands 69%; under `C(=Cc1ccccc1)CN1CCC(C2c3ccccc3C=Cc3ccccc32)CC1` [4-(5H-Dibenzo[a,d]cyclohepten-5-yl)-1-cinnamylpiperidine], 70%.
